The values below are quoted from earlier work in patent US6387352B1, “Mouthwash compositions” (Erling Johansen, priority 1996, dated 2002).

For this series the following is noted: compared to similar solutions excluding fluoride.

Molecules are shown by their SMILES.

As to `F` [fluoride], the “increase in hardness of dental enamel on addition of fluoride to calcium/phosphate solution” value is reported as “(about) four times increase in hardness”.
